Numbers after ± are expanded uncertainties.
Key:
[1] = refractive index (other wavelength) (dimensionless); settings: 101.3 kPa, Liquid, Wavelength=632.8 nm, Method described in references 3 and 4 of the article
[2] = refractive index (other wavelength) (dimensionless); xn = mol fraction of the nth substance listed; settings: 101.3 kPa, Liquid, Wavelength=632.8 nm, Method described in references 3 and 4 of the article, x2 = 0

CCCCCCCCCCCCCCCC [hexadecane]
[1]
Settings	refractive index
294.85 K	1.4324 ± 0.0002
295.86 K	1.432 ± 0.0002
296.96 K	1.4315 ± 0.0002
297.9 K	1.4312 ± 0.0002
299.71 K	1.4304 ± 0.0002
301.21 K	1.4297 ± 0.0002
302.84 K	1.4291 ± 0.0002
304.26 K	1.4285 ± 0.0002

N#Cc1ccccc1 [benzonitrile]
[1]
Settings	refractive index
294.62 K	1.5246 ± 0.0002
296.97 K	1.5235 ± 0.0002
299.08 K	1.5224 ± 0.0002
301.39 K	1.5213 ± 0.0002
303.42 K	1.5203 ± 0.0002
305.92 K	1.5191 ± 0.0002

CCCCCCCCCCCCCCCC [hexadecane] + N#Cc1ccccc1
[2]
Settings	refractive index
294.85 K	1.4324 ± 0.0002
295.86 K	1.432 ± 0.0002
296.96 K	1.4315 ± 0.0002
297.9 K	1.4312 ± 0.0002
299.71 K	1.4304 ± 0.0002
301.21 K	1.4297 ± 0.0002
302.84 K	1.4291 ± 0.0002
304.26 K	1.4285 ± 0.0002

— the NIST ThermoML archive (doi:10.1016/j.jct.2005.08.005)
